Some test systems named below: ACHN; CAKI-1; HCC 2998; MOLT-4; SF-539; SK-MEL-28; SK-MEL-2; SK-OV-3; SN12C; SR; TK-10; U-251; UACC-62; LOX IMVI; SF-295.
Holding throughout (experiment): NCI-60 cell line screen, 48 h

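Grown in 96-well plates, cells were treated for 48 hours with each compound at five concentrations. Insufficient inhibition: endpoint recorded as highest concentration tested. GI50: concentration for 50% inhibition of growth.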 The source made the active and inactive calls. No stated cut-off is given here; in the data, active = GI50 up to about 1.1 µM and inactive = higher. Where only a bound is given, the exact number is not on record here.

With `Nc1ccn([C@@H]2C[C@H](CO)[C@@H](O)[C@H]2O)c(=O)n1`, the GI50 with ACHN, in the experiment with CAKI-1, in the experiment on HCC 2998, in the experiment with MOLT-4, in the experiment on SF-539 and in the experiment with SK-MEL-28 was > 57.7 µM (inactive) in each case. Also, the GI50 with SK-MEL-2, in the experiment with SK-OV-3, in the experiment on SN12C, in the experiment with SR, in the experiment with TK-10 and in the experiment with U-251 was > 57.7 µM (inactive) throughout. For the same molecule, the GI50 with UACC-62 is > 57.7 µM (inactive).

`O=C(O)Cn1c(=O)[nH]c(=O)c2[nH]cnc21`: the GI50 with ACHN, with HCC 2998, in the experiment on LOX IMVI, in the experiment on MOLT-4, in the experiment with SF-539 and in the experiment on SK-MEL-28 was > 100 µM (inactive) throughout. Also, the GI50 in the experiment with SK-MEL-2, with SK-OV-3, in the experiment with SN12C, with SR, with TK-10 and in the experiment with U-251 was > 100 µM (inactive) throughout. For the same molecule, the GI50 with UACC-62 is > 100 µM (inactive).

On to `OC1=CN=C(c2ccccc2)Oc2ccccc21`, for which the GI50 was > 100 µM (inactive) with ACHN; > 100 µM (inactive) with HCC 2998; > 100 µM (inactive) in the experiment with LOX IMVI; > 100 µM (inactive) in the experiment on MOLT-4; 32 µM (inactive) in the experiment with SF-295; 19 µM (inactive) with SF-539. Besides, the GI50 in the experiment on SK-MEL-28, in the experiment on SK-MEL-2, in the experiment with SK-OV-3, in the experiment on SN12C, in the experiment with TK-10 and in the experiment on U-251 was > 100 µM (inactive) throughout. In the experiment with UACC-62, the GI50 was > 100 µM (inactive).

Turning to `COC(=O)N/N=C(\C)C(CN1CCCCC1)C(C1=C(O)c2ccccc2OC1)c1ccccc1` (configuration not stated), the GI50 in the experiment with ACHN, in the experiment on CAKI-1, in the experiment on LOX IMVI, in the experiment with MOLT-4, in the experiment with SF-295 and in the experiment on SF-539 was > 100 µM (inactive) throughout. Moreover, the GI50 in the experiment on SK-MEL-28, with SK-MEL-2, in the experiment with SK-OV-3, in the experiment with SN12C, in the experiment on SR and in the experiment with TK-10 was > 100 µM (inactive) throughout. For the same molecule, the figures for the GI50 in the experiment on U-251 and in the experiment on UACC-62 were 43.1 µM (inactive) and 86.3 µM (inactive), respectively.

On to `O=C1CC2CCN(C(=O)c3ccccc3)CC2CCN1` (configuration not stated), for which the GI50 with ACHN, in the experiment on HCC 2998, in the experiment with LOX IMVI, with MOLT-4, in the experiment on SF-295 and in the experiment on SF-539 was > 100 µM (inactive) in each case. In addition, the GI50 in the experiment with SK-MEL-28 is > 100 µM (inactive); with SK-MEL-2, 0.578 µM (active); in the experiment on SK-OV-3, > 100 µM (inactive); in the experiment on SN12C it was > 100 µM (inactive); in the experiment on SR, > 100 µM (inactive); in the experiment with TK-10, > 100 µM (inactive). Moreover, the GI50 in the experiment on U-251 and with UACC-62 was > 100 µM (inactive) throughout.

Regarding `CN(O)C(=O)Cc1ccccc1`, the GI50 in the experiment with ACHN, in the experiment with CAKI-1, in the experiment on HCC 2998, in the experiment on LOX IMVI, in the experiment with MOLT-4 and in the experiment with SF-295 was > 100 µM (inactive) each time. Also, the GI50 in the experiment on SF-539, in the experiment with SK-MEL-28, with SK-OV-3, in the experiment on SN12C, in the experiment on SR and with TK-10 was > 100 µM (inactive) each time. The GI50 in the experiment with U-251 and in the experiment with UACC-62 was > 100 µM (inactive) each time.

Take `CCOC(=O)C=C1CCN(C(=O)c2ccccc2)CC1`: the GI50 with ACHN, in the experiment with HCC 2998, in the experiment with LOX IMVI, in the experiment with MOLT-4, in the experiment on SF-295 and with SF-539 was > 100 µM (inactive) each time. In addition, the GI50 in the experiment on SK-MEL-28 is > 100 µM (inactive); in the experiment on SK-MEL-2 it was < 0.01 µM (active); in the experiment with SK-OV-3, > 100 µM (inactive); with SN12C, > 100 µM (inactive); with SR, 15.4 µM (inactive); in the experiment with TK-10, > 100 µM (inactive). Moreover, the GI50 in the experiment with U-251 and in the experiment on UACC-62 was > 100 µM (inactive) each time.

In the case of `O=C(CC1=Nc2nnc(CCCCCCCc3nnc4n3C(=O)C(CC(=O)c3ccccc3)=N4)n2C1=O)c1ccccc1`, the GI50 with ACHN, with CAKI-1, with HCC 2998, in the experiment with LOX IMVI, with MOLT-4 and in the experiment on SF-295 was > 100 µM (inactive) throughout. Moreover, the GI50 in the experiment with SF-539, in the experiment on SK-MEL-28, in the experiment on SK-OV-3, with SN12C, in the experiment on SR and in the experiment on TK-10 was > 100 µM (inactive) each time. In addition, the GI50 with U-251 and in the experiment on UACC-62 was > 100 µM (inactive) in each case.

As for `Cc1ccc(NC(=O)CSc2nnc(-c3ccc(/N=C\c4ccc(Cl)cc4)cc3)o2)cc1`, the GI50 in the experiment with ACHN, in the experiment with LOX IMVI, with MOLT-4, in the experiment on SF-295, in the experiment on SK-MEL-28 and in the experiment on SK-MEL-2 was > 100 µM (inactive) throughout. Moreover, the GI50 in the experiment on SK-OV-3, in the experiment with SN12C, in the experiment with SR, in the experiment on TK-10, in the experiment with U-251 and in the experiment with UACC-62 was > 100 µM (inactive) each time.

In the case of `O=C(Nc1ccn(CCI)c(=O)n1)c1ccccc1`, the GI50 in the experiment with ACHN, in the experiment on CAKI-1, with LOX IMVI, in the experiment with SF-295, in the experiment on SF-539 and in the experiment on SK-MEL-28 was > 100 µM (inactive) each time. For the same molecule, the GI50 in the experiment on SK-MEL-2, with SK-OV-3, in the experiment on SN12C, with SR, in the experiment with TK-10 and with U-251 was > 100 µM (inactive) throughout. Besides, in the experiment with UACC-62, the GI50 is > 100 µM (inactive).

Turning to `O=C1OC(c2ccccc2)=N/C1=C\c1ccc2ccccc2c1`, the GI50 in the experiment on ACHN, in the experiment on CAKI-1, in the experiment with LOX IMVI, in the experiment with MOLT-4, in the experiment with SF-539 and in the experiment with SK-MEL-28 was > 100 µM (inactive) in each case. Besides, the GI50 in the experiment with SK-MEL-2, in the experiment with SK-OV-3, with SN12C, in the experiment with TK-10, in the experiment with U-251 and with UACC-62 was > 100 µM (inactive) in each case.

As for `Sc1nnc(-c2ccnc(-c3nnc(S)[nH]3)c2)[nH]1`, the GI50 with ACHN, in the experiment on CAKI-1, with HCC 2998, in the experiment on LOX IMVI, with MOLT-4 and with SF-295 was > 100 µM (inactive) throughout. The GI50 with SF-539, in the experiment with SK-MEL-28, with SK-MEL-2, in the experiment on SK-OV-3, in the experiment on SN12C and in the experiment on TK-10 was > 100 µM (inactive) in each case. Further, the GI50 in the experiment with U-251 and in the experiment with UACC-62 was > 100 µM (inactive) in each case.

For the molecule `COC(=O)C(C(=O)C(=O)Nc1ccccc1OC)c1csc(-n2nc(-c3ccccc3)cc2-c2ccccc2)n1` (configuration not stated), the GI50 in the experiment on ACHN is > 100 µM (inactive); in the experiment with CAKI-1 it was > 100 µM (inactive); in the experiment on HCC 2998 it was > 100 µM (inactive); in the experiment with LOX IMVI it was > 100 µM (inactive); in the experiment with MOLT-4 it was 65.2 µM (inactive); in the experiment on SK-OV-3, > 100 µM (inactive). Moreover, the GI50 in the experiment on SN12C is > 100 µM (inactive); in the experiment on SR, 90.8 µM (inactive); with TK-10, > 100 µM (inactive); in the experiment with U-251, > 100 µM (inactive); in the experiment on UACC-62, > 100 µM (inactive).

With `COCOC1CCCC[C@@]1(OCCOCCO[C@@]1(c2ccccc2)CCCC[C@H]1OCOC)c1ccccc1` (some centres not stated), the GI50 is 87.7 µM (inactive) with ACHN; 41.1 µM (inactive) with CAKI-1; > 100 µM (inactive) with HCC 2998; > 100 µM (inactive) in the experiment with LOX IMVI; > 10 µM (inactive) with MOLT-4; 32.4 µM (inactive) in the experiment on SF-295. The GI50 is > 100 µM (inactive) with SK-MEL-28; > 100 µM (inactive) with SK-MEL-2; 67.9 µM (inactive) in the experiment on SK-OV-3; > 100 µM (inactive) in the experiment on SN12C; > 100 µM (inactive) in the experiment with SR; 70.6 µM (inactive) in the experiment on TK-10. For the same molecule, the GI50 in the experiment on U-251 and in the experiment with UACC-62 was > 100 µM (inactive) throughout.

`ONc1ncnc2[nH]cnc12`: the GI50 in the experiment on ACHN, with CAKI-1, in the experiment on HCC 2998, in the experiment with MOLT-4, in the experiment on SF-295 and with SF-539 was > 100 µM (inactive) each time. Further, the GI50 with SK-MEL-28, in the experiment on SK-MEL-2, in the experiment with SR, with TK-10, in the experiment on U-251 and in the experiment with UACC-62 was > 100 µM (inactive) throughout.

The values are drawn from ChEMBL document CHEMBL1201862, “PubChem BioAssay data set” (2004).
